In brackets after ≈: the same amount, converted by molar mass. Where two headings read alike, the source gives them in different places.
Legend:
Format in all cases: cell-based
[1] = test system: TLR-4 activity of A. baumannii culture supernatants; assay: TLR4 assay: TLR4 activity of A. baumannii culture supernatants in HEK-Blue-hTLR4 cells; conditions: Acinetobacter baumannii, HEK-Blue hTLR4, read-out: % TLR-4 activity
Method: The TLR4 assay measures activity of diluted filter-sterilized A. baumannii culture supernatants. The assay was performed as described in Lin et al, Mbio, 2012. Briefly, A. baumannii was passaged to mid log-phase in the presence of Forge LpxC inhibitors. Culture supernatants were harvested, filter-sterilized and diluted 1:1000. TLR4 activity of the supernatants was tested using HEK-Blue-hTLR4 cells (Invivogen) that carry NF-kB and AP-1 driven SEAP (secreted embryonic alkaline phosphatase) reporter gene.
Exemplary TLR4 assay data (% TLR-4 activity) for compounds in embodiments of the disclosure.

[2] = test system: K. pneumoniae; assay: Bacterial susceptibility testing, MIC by broth microdilution (CLSI); conditions: for MIC: Klebsiella pneumoniae, read-out: K. pneumoniae MIC
Method: (§1) Minimal inhibitory concentrations (MIC) were determined by the broth microdilution method in accordance with the Clinical and Laboratory Standards Institute (CLSI) guidelines. In brief, organism suspensions were adjusted to a 0.5 McFarland standard to yield a final inoculum between 3×10^5 and 7×10^5 colony-forming units (CFU)/mL. Drug dilutions and inocula were made in sterile, cation adjusted Mueller-Hinton Broth (Beckton Dickinson). An inoculum volume of 100 μL was added to wells containing 100 μL of broth with 2-fold serial dilutions of drug. All inoculated microdilution trays were incubated in ambient air at 35° C. for 18-24 h. Following incubation, the lowest concentration of the drug that prevented visible growth (OD600 nm<0.05) was recorded as the MIC. Performance of the assay was monitored by the use of laboratory quality-control strains and levofloxacin, a compound with a defined MIC spectrum, in accordance with CLSI guidelines.

[3] = test system: E. coli; assay: as above; conditions: for MIC: Escherichia coli, read-out: E. coli MIC
Method: as §1

[4] = test system: S. aureus; assay: as above; conditions: for MIC: Staphylococcus aureus, read-out: S. aureus MIC
Method: as §1

[5] = broth microdilution, 35° C., 18-24 h

| SMILES | MIC [2, 5] [µg/mL] | MIC [3, 5] [µg/mL] | MIC [4, 5] [µg/mL] | other results |
| --- | --- | --- | --- | --- |
| CC(=O)NC[C@@H](Cc1ccc(C#Cc2ccc(CN3CCOCC3)cc2)cc1)c1nc[nH]c(=O)c1O [Compound 14, (R)-N-(2-(5-hydroxy-6-oxo-1,6-dihydropyrimidin-4-yl)-3-(4-((4-(morpholinomethyl)phenyl)ethynyl)phenyl)propyl)acetamide] | 8 to 32 (≈ 16.4 to 65.8 µM) | 1 to 8 (≈ 2.06 to 16.4 µM) | > 32 | activity at 4 µg/mL [1]: > 80%; activity at 8 µg/mL [1]: > 80%; activity at 16 µg/mL [1]: > 80% |
| O=C(CF)NCC(Cc1ccc(C#Cc2ccc(CN3CC4CCC(C3)O4)cc2)cc1)c1nc[nH]c(=O)c1O (stereo not drawn) [Compound 13, N-(3-(4-((4-((8-oxa-3-azabicyclo[3.2.1]octan-3-yl)methyl)phenyl)ethynyl)phenyl)-2-(5-hydroxy-6-oxo-1,6-dihydropyrimidin-4-yl)propyl)-2-fluoroacetamide] | – | – | – | MIC [2]: 1 to 8 µg/mL (≈ 1.88 to 15.1 µM); MIC [3]: 1 to 8 µg/mL (≈ 1.88 to 15.1 µM); MIC [4]: > 32 µg/mL |
| O=c1[nH]cnc(CCc2ccc(C#Cc3ccc(CN4CC(O)C4)cc3)c(F)c2)c1O [Compound 187, 6-(3-fluoro-4-((4-((3-hydroxyazetidin-1-yl)methyl)phenyl)ethynyl)phenethyl)-5-hydroxypyrimidin-4(3H)-one] | < 1 | < 1 | > 32 | activity at 4 µg/mL [1]: 50 to 80%; activity at 8 µg/mL [1]: 50 to 80%; activity at 16 µg/mL [1]: 20 to 50% |
| O=C(CF)NCC(Cc1ccc(C#Cc2ccc(CCN3CCOCC3)cc2)cc1)c1nc[nH]c(=O)c1O (stereo not drawn) [Compound 17, 2-fluoro-N-(2-(5-hydroxy-6-oxo-1,6-dihydropyrimidin-4-yl)-3-(4-((4-(2-morpholinoethyl)phenyl)ethynyl)phenyl)propyl) acetamide] | – | – | – | K. pneumoniae MIC [2, 5]: C (C: >8.0 μg/mL to ≤32 μg/mL); E. coli MIC [3, 5]: B (B: >1 μg/mL to ≤8.0 μg/mL); S. aureus MIC [4, 5]: D (D: >32 μg/mL) |
| O=C(CF)NCC(Cc1ccc(C#Cc2ccc(CN3CCCC3)cc2)cc1)c1nc[nH]c(=O)c1O (stereo not drawn) [Compound 44, 2-fluoro-N-(2-(5-hydroxy-6-oxo-1,6-dihydropyrimidin-4-yl)-3-(4-((4-(pyrrolidin-1-ylmethyl)phenyl)ethynyl)phenyl)propyl)acetamide] | – | – | – | MIC [2]: > 32 µg/mL; MIC [3]: > 32 µg/mL; MIC [4]: > 32 µg/mL |

Now from value to compound, other results behind:

| MIC [2, 5] [µg/mL] | MIC [3, 5] [µg/mL] | MIC [4, 5] [µg/mL] | SMILES | other results |
| --- | --- | --- | --- | --- |
| > 32 | > 32 | > 32 | O=C(CN1CCC1)NCC(Cc1ccc(C#Cc2ccc(CN3CCOCC3)cc2)cc1)c1nc[nH]c(=O)c1O (stereo not drawn) [Compound 46, 2-(azetidin-1-yl)-N-(2-(5-hydroxy-6-oxo-1,6-dihydropyrimidin-4-yl)-3-(4-((4-(morpholinomethyl)phenyl)ethynyl)phenyl)propyl)acetamide] | – |
| 1 to 8 (≈ 2.48 to 19.8 µM) | < 1 | > 32 | COCCNCc1ccc(C#Cc2ccc(CCc3nc[nH]c(=O)c3O)cc2)cc1 [Compound 245, 5-hydroxy-6-(4-((4-(((2-methoxyethyl)amino)methyl)phenyl)ethynyl)phenethyl)pyrimidin-4(3H)-one] | – |
| < 1 | < 1 | > 32 | O=c1[nH]cnc(CCc2ccc(C#Cc3ccc(CNC4CCOC4)cc3)cc2)c1O (stereo not drawn) [Compound 241, 5-hydroxy-6-(4-((4-(((tetrahydrofuran-3-yl)amino)methyl)phenyl)ethynyl)phenethyl)pyrimidin-4(3H)-one] | – |
| 1 to 8 (≈ 1.85 to 14.8 µM) | 1 to 8 (≈ 1.85 to 14.8 µM) | > 32 | O=C(NCC(Cc1ccc(C#Cc2ccc(CN3CCOCC3)cc2)cc1)c1nc[nH]c(=O)c1O)C(F)(F)F (stereo not drawn) [Compound 18, 2,2,2-trifluoro-N-(2-(5-hydroxy-6-oxo-1,6-dihydropyrimidin-4-yl)-3-(4-((4-(morpholinomethyl)phenyl)ethynyl)phenyl)propyl)acetamide] | – |
| 8 to 32 (≈ 15.9 to 63.8 µM) | 1 to 8 (≈ 1.99 to 15.9 µM) | > 32 | NCCNC(=O)C(Cc1ccc(C#Cc2ccc(CN3CCOCC3)cc2)cc1)c1nc[nH]c(=O)c1O (stereo not drawn) [Compound 10, N-(2-aminoethyl)-2-(5-hydroxy-6-oxo-1,6-dihydropyrimidin-4-yl)-3-(4-((4-(morpholinomethyl)phenyl)ethynyl)phenyl) propanamide] | – |
